Assay results as given in a melting point compilation (Tetko et al.; mined from patent text by program, amines drawn as free bases though some values may be those of a salt).

Row | melting point | Compound
1 | 157 to 159 °C | CC(C)(C)CN1C(=O)[C@@H](CCO)O[C@H](c2ccccc2Cl)c2cc(Cl)ccc21 (relative stereo)
2 | 75 to 78 °C | CCCCCCCCCCCCCCCCCCc1cc(OC(=O)CC)ccc1O
3 | 150 to 152 °C | CCCCNC(=S)Nc1cc(Cl)ccc1N1CCOCC1
4 | 63 to 66 °C | C[Si](C)(C)C#CC1(OC(=O)c2ccccc2)C(COC(=O)c2ccc(Cl)cc2)OC(OC(=O)c2ccccc2)C1OC(=O)c1ccccc1 (configuration not stated)
5 | 127 to 128 °C | Cc1cnc2c(c1)C(=O)N(C(C)C)C2=O
6 | 221 to 223 °C | Nc1cc2cccnc2c(-c2cccc([N+](=O)[O-])c2)n1
7 | 126 to 129 °C | CC1=C(c2ccc(O)cc2)C(=O)c2c(O)cc(O)cc21
8 | 139 to 140 °C | Cc1c(N)c(C)c2c(-c3ccc(C4CCCCC4)cc3)coc2c1C
9 | > 300 °C | Nc1ccc2c(c1)CN(c1c(F)cc3c(=O)c(C(=O)O)cn(-c4ccc(F)cc4F)c3c1F)C2
10 | 133 to 135 °C | CCCCOc1ccc(Nc2cc(Nc3ccc4c(c3)OCCO4)c(F)cn2)cc1
11 | 146 to 147 °C | O=C(CCCC(Cl)=C(C(=O)O)c1csc(NC(=O)OCc2ccccc2)n1)OCc1ccccc1
12 | 185 to 186 °C | NS(=O)(=O)c1ccc(NC(=O)CNc2ccccc2)c(Cl)c1
13 | 166 to 168 °C | Cc1cc(=O)oc2cccc(OC(=S)N(C)C)c12
14 | 137 to 138 °C | CC(C)c1nn(-c2ccc(C(F)(F)F)cn2)cc1CCCCOc1cc(CCC(=O)O)n(-c2ccccc2)n1
15 | 256 to 258 °C | CC(=O)Nc1cnn2cnc3ccccc3c12
16 | 170 to 172 °C | C[Si](Cl)(Cl)C(c1ccccc1)(c1ccccc1)c1ccccc1
17 | 68 to 70 °C | OCc1nccc(N2CCCCC2)c1Cl
18 | 91 to 93 °C | CC(=O)NCCN1CCc2ccc3c(c21)CCCO3
19 | 164 to 166 °C | Cn1cc(C(=O)CN2CCN(c3ncccn3)CC2)cc1C(=O)c1ccc([N+](=O)[O-])cc1
20 | 237 to 238 °C | NS(=O)(=O)c1ccc(N2CC(=O)N(C3CCCCC3)C2=O)cc1
21 | 120 to 124 °C | CCOP(=O)(CC(=O)Nc1cc2c(Nc3ccc(Br)c(Br)c3)ncnc2cn1)OCC
22 | 152 to 154 °C | Cc1ccc(-c2c(CNC(=O)OC(C)(C)C)n(CC(C)C)c(=O)c3ccc(/C=C/C(N)=O)cc23)cc1
23 | 146 to 147 °C | COC(=O)C1CC(C#N)(c2ccc(OC)c3c2OC(C)(C)O3)CCC1=O (configuration not stated)
24 | 80 to 82 °C | N#CC1Cc2ccc([N+](=O)[O-])cc2C1 (configuration not stated)

Row | melting point | Compound
25 | 146 to 147 °C | Cn1c(=O)c2c(nc(Cl)n2Cc2ccccc2)n(C)c1=O
26 | 79 to 80 °C | COc1cc(C(=O)c2ccc(OCc3ccccc3)cc2N)cc(OC)c1OC
27 | 41 to 42 °C | CCCCCCCCCCCCCCCCCCCC(C)=O
28 | 63.1 to 66.3 °C | CCCCCC[C@@H]1C(=O)O[C@H]1OC(=O)N(CCCCC)c1ccccc1Oc1ccccc1 (relative stereo)
29 | 131 to 133 °C | O=C1Cc2ccc(F)cc2Sc2cc(F)c(Cl)cc21
30 | 126 to 128 °C | COc1c(O)ccc(C(=O)c2ccccc2)c1F
31 | 132 to 134 °C | O=C(Nc1cn(C2CCCCO2)nc1C(=O)NCC(O)Cc1ccccc1)c1ccccn1 (configuration not stated)
32 | 93 to 95 °C | COC(=O)C1CN=CN(C)C1 (configuration not stated)
33 | 182 to 183 °C | Cc1c(C)c2c(c(C)c1O)CCC(C)(C(=O)N1CC(Oc3ccc(NC(=O)OC(C)(C)C)cc3)C1)O2 (configuration not stated)
34 | 67 to 68 °C | CCOC(=O)/C=C/c1cc(Br)ccc1N(C)Cc1cnn(C)c1
35 | 119 to 120 °C | CC1CC(=O)N(c2ccncc2)C1=O (configuration not stated)
36 | 126 to 128 °C | CN1C(=S)C(CCC(=O)O)c2ccccc21 (configuration not stated)
37 | 176 to 179 °C | CC1(C)CC(=O)Nc2ccc(Br)cc21
38 | 104 to 105 °C | Ic1c2n(c3ccc(OC4CC4)cc13)CCC2
39 | 133 to 135 °C | CCOC(=O)/C(=N\O[C@H]1CC[C@H](C)CC1)c1csc(N)n1
40 | 157 to 159 °C | CC(C)c1nn(-c2ccccc2)c(-c2ccc(F)cc2)c1CC[C@H]1C[C@H](O)CC(=O)O1 (relative stereo)
41 | 170 to 173 °C | O=CN1CCN(c2nc3cccccc-3n2)CC1
42 | 78 to 84 °C | COc1ccccc1N1CCN(CCCn2c(=O)[nH]c3ccsc3c2=O)CC1
43 | > 300 °C | Cc1cn2c(=O)c(C(=O)O)cnc2c2cc(N)ccc12
44 | 145 to 146 °C | C#CCOCCn1c(N2CCN(C)CC2)nc2ccccc21
45 | 206 to 207 °C | Fc1ccc(F)c(-c2coc3ccc(-c4nnc(S)o4)cc23)c1
46 | 68 to 70 °C | CCCCCCCCCCCCCCCCCCOc1cc(OCCCCC(=O)OC)cc(C(=O)O)c1
47 | 230 °C | N#Cc1ccc(NC(CNCC(=O)O)[N+](=O)[O-])cc1 (configuration not stated)
48 | 85 to 86.5 °C | C=C(C)COc1ccc(C(=O)c2ccccc2)cc1

Row | melting point | Compound
49 | 178 to 180 °C | O=C(Nc1ccccc1)Nc1cccnc1Cl
50 | 228 °C | N#Cc1cnc2sc(Cl)cc2c1Nc1ccc2[nH]ccc2c1
51 | 188 to 190 °C | COc1cc2c(Nc3ccc(Cl)cc3F)ncnc2cc1OCCOc1cccnc1
52 | 161 to 162 °C | COc1nc2ccc(Br)cc2cc1C(c1ccccc1)n1ccnc1 (configuration not stated)
53 | 157 to 160 °C | CN(C)c1ccc(-c2nc(N(C)C)nnc2-c2ccc(F)cc2)cc1
54 | 135 to 140 °C | C[C@H](NC(=O)CCCCc1ccccc1)C(=O)N[C@H](CCC(=O)O)C(=O)O
55 | 204 °C | Cc1cc(Cl)cc(C(=O)Nc2ccn(C)n2)n1
56 | > 300 °C | CCn1c(=O)c(=O)[nH]c2ccc([N+](=O)[O-])cc21
57 | 113 to 120 °C | N#CCc1cccc(CCc2ccccc2C(=O)O)c1
58 | 137 to 138 °C | COc1cc(CCNC(=O)c2ccccc2)cc2c1OC(C)(C)C2
59 | 138 to 140 °C | COc1ccc2c3c(ccc2c1)CC(=O)C3
60 | 226 to 228 °C | Cc1ccc2sc3nncn3c2c1C
61 | 205 °C | S=C(Nc1ccccc1)N1CCc2[nH]cnc2C1
62 | 266 to 268 °C | Nc1nc2ccccc2n[n+]1[O-]
63 | 84 °C | C=Cn1cccc(O)c1=S
64 | 98 to 99 °C | Cc1oc(-c2ccccc2)nc1COc1ccc(Cn2cc(CC(=O)O)c(-c3cccs3)n2)cc1
65 | 49 to 53 °C | CCCOc1nc2ccc(I)cc2c(=O)n1CCC
66 | 83 to 84.5 °C | O=c1oc(-c2cccc(Cl)c2)ns1
67 | 115 to 117 °C | CCOC(=O)C(CCc1ccccc1)(NC(C)=O)C(=O)OCC
68 | > 350 °C | Nc1c(Cl)c(Br)cc2[nH]c(=O)c(=O)[nH]c12
69 | 145 to 147 °C | O=C(O)CCCCc1ccc(NS(=O)(=O)c2ccc(Cl)cc2)cn1
70 | 250 °C | CCN(CC)C(=O)Nc1ccc(S(=O)(=O)n2c(=O)n(C3CCCCC3)c3cc(Cl)ccc32)c(OC)c1
71 | 165 °C | COc1cccc2c1C(=CC(=O)c1ccccc1)OC2=O
72 | > 280 °C | CCOc1cc(C(=O)NC2CC(C)(C)NC(C)(C)C2)ccc1-c1nc2cc(Cl)c(Cl)cc2[nH]1

Row | melting point | Compound
73 | 147 to 148 °C | CCN(CC)C(=O)c1c(-c2ccccc2)ccc2cc(-c3ccc(OC)cc3)ccc12
74 | 210 to 212 °C | NC(=O)NC(Cc1c[nH]c2ccccc12)C(=O)NCc1cc(C(F)(F)F)cc(C(F)(F)F)c1 (configuration not stated)
75 | 140 to 142 °C | CCOC(=O)C(=O)Nc1c([N+](=O)[O-])cc(S(=O)(=O)NC(=O)C(=O)OCC)c2c1CCCC2
76 | 179 to 180 °C | CC(C)(C)c1nc(S(C)(=O)=O)n(-c2c(Cl)cc(Cl)cc2Cl)n1
77 | 225 to 226 °C | CCc1cc(CC)c(-c2c(O)c(C)nn(C)c2=O)c(CC)c1Br
78 | 132 to 134 °C | Cc1ccc2c(c1)[C@H](Nc1nc(N)nc(C(F)F)n1)[C@@H](C)C2
79 | 149 to 151 °C | COc1ccc(S(=O)(=O)n2ccc3ccnc(-c4ccccc4)c32)cc1
80 | 93 to 95 °C | CCOc1cc(C)cc(C)c1C
81 | 202 to 204 °C | Cc1ccc(NC(=O)N(C)Cc2cccc3c2C(=O)N(C2CCC(=O)NC2=O)C3=O)cc1C (configuration not stated)
82 | 159 to 160 °C | COc1ccc2c(c1)c(CC(=O)O[C@H]1CO[C@H]3[C@H]1OC[C@H]3O[N+](=O)[O-])c(C)n2C(=O)c1ccc(Cl)cc1
83 | 134 to 136 °C | N#CCCNC(=O)C1=CC(CF)(CF)Oc2ccc(Cl)cc21
84 | 64 °C | N#CC(=O)c1ccccc1Br
85 | 178 to 180 °C | COc1cc2cc(CC(C)(C(N)=O)c3ccc(C#N)cc3)sc2cc1OC (configuration not stated)
86 | 117 to 119 °C | CC(=O)c1cccc(Oc2ncccc2OCCCc2ccncc2)c1
87 | 107 to 109 °C | OC(Cc1ccccc1)Cc1ccccc1
88 | 235 to 236 °C | O=C(Nc1cccnc1)c1ccc(OC(F)F)c2oc3ccc(C(F)(F)F)cc3c12
89 | 149 to 153 °C | COC(=O)CN1CC(=O)NC1=NN=Cc1ccccc1
90 | 31 to 33 °C | N#CC(N)c1cccc(Cl)c1 (configuration not stated)
91 | 179 to 180 °C | CSc1cc(C)nc(SC)c1NC(=O)CCCCSc1nc2cccc(C(F)(F)F)c2o1
92 | 258 to 260 °C | Cc1cc(-c2nc[nH]n2)ccc1-c1cnc2[nH]c(=O)n(CCC3CCOCC3)c2n1
93 | 88 to 90 °C | O=CNc1cccc(C(=NOC(=O)C(Cl)Cl)C(=O)O)n1
94 | 80 °C | COC(=O)Cc1ccc(CNC(=O)C2Cc3c(OC)cccc3N2S(=O)(=O)c2ccc(-c3cccc(C(F)(F)F)c3)cc2)cc1 (configuration not stated)
95 | 178 to 179 °C | CCNS(=O)(=O)Nc1ccc(C(O)(C(F)(F)F)C(F)(F)F)cc1

Row | Compound | melting point
96 | CC(C)(C)OC1CCC2(C)C(=CCC3C4CCC(=O)C4(C)CCC32)C1 (configuration not stated) | 185 to 187 °C
97 | O=c1c2c(F)cccc2nc(CSc2ncnc3[nH]cnc23)n1-c1ccccc1Cl | 223 to 224 °C
98 | CN(SC(Cl)(Cl)Cl)C(=O)ON=C1SCC(=O)NC1(C)C | 189 to 190 °C
99 | Cc1cc(NC(=O)C(C)(O)COc2cccc(Cl)c2)ccc1[N+](=O)[O-] (configuration not stated) | 104 to 107 °C
100 | Cc1c(N[C@@H](c2nnc(-c3ccc(F)c(O)c3)o2)[C@H](C)O)ccc(C#N)c1Cl | 103 to 108 °C
101 | COc1cccc2c1OC(CN1CC=C(c3c[nH]c4cc(F)ccc34)CC1)CO2 (configuration not stated) | 184 to 185 °C
102 | N#CC1CN1C(=O)NC(=O)C(Cl)(Cl)Cl (configuration not stated) | 150 to 152 °C
